Data from patent US20160295854A1, “COMPOSITION AND METHOD FOR EX-VIVO IMMUNOMODULATION AND/OR PRESERVATION OF ORGANS, METHODS AND USE” (UNIAO BRASILEIRA DE EDUCACAO E ASSISTENCIA , MANTENEDORA DA …, priority 2014, published 2016).

What was measured:
CD86 = type: cell-based, mice (Mus musculus); details: BMDCs treated or not with LPS 24 h, then treated or not with Hsp70 for additional 24 h
[1] = system: donor cells (I-A^b+ or GFP+) in recipient DLN; test: Donor migratory cells screened in the recipient DLN by flow cytometry; type: in vivo, mice (Mus musculus)
MHC II = MHC II (I-A^b) expression in DCs isolated from skin draining lymph nodes; type: cell-based, mice (Mus musculus)
Experimental: CD11c+ cells were purified from lymph nodes that drain mice skin antigens C57Bl/6 WT or TLR2 KO, and 129Sv/Ev WT or IL-10 KO. The animals were sacrificed and the axial, brachial and inguinal lymph nodes were removed. These organs were macerated in a nylon screen with a mean that has D Collagenase (Roche). The cell suspension achieved was marked with the magnetic beads conjugated with an anti-CD11c antibody (N418) (Miltenyi Biotech) for 15 min. After being washed, the CD11c+ cells were purified by positive selecting using the MACS MS (Miltenyi Biotech) separation columns, according to the manufacturer instructions. The cells purity purified was controlled by flow cytometry, indicating a purity of 90% CD11c+ cells in the positive fraction. Therefore, the cells were grown in 96-well plates in serum free mean AIM-V® (Gibco).
The supernatants were collected and used for analyzing cytokine. The cells were further treated with 20 ng/ml of Rapamycin (Cell Signaling), 1 μg/ml of Cyclosporine A (Roche) or 20 ng/ml of IL-10 recombinant murine (R&D System) for 24 h and the total RNA was removed.
For analyzing the migration and activation of the DCs subtypes, the cells were marked for I-A^b (AF6-120.1), CD11c (HL3), CD11b (M1/70), CD45R/B220 (RA3-6B2), CD103 (M290), CCR7 (CD197-4B12), CD80 (16-10A1), CD86 (GL1) antibodies achieved from BD Biosciences; and Langerin (CD207—eBioRMUL.2) from eBioscience.
After this period, the expression of I-A^b in the DCs was analyzed by flow cytometry.
(A) Analysis strategy for DCs subtypes present in the mice recipients DNL. […] After this period, the expression of I-A^b was analyzed in the DCs CD103+. Graphs expressed on average ±SEM. **, p<0.01; ***, […]. n=3 mice per group. Representative results of 3 independent experiments.
After that, IL-10 mRNA levels were analyzed by Real-time PCR. The β-actin was used as a setter. The IL-10 concentration was measured in the cultures supernatant by flow cytometry. […] (C) As in A, however the MARCH-I mRNA levels were analyzed by Real-time PCR. […] DCs IL-10 KO were also treated with Recombinant IL-10. All treatments were performed for 24 h and MARCH-I mRNA levels were analyzed by Real-time PCR. […] After this period, grafts were sutured in the BALB/c animals' back and the acceptance was daily monitored. Graphs expressed on average ±SEM. *, p<0.05; **, p<0.01; ***, […]. n=3-5 mice per group. Representative results of 3 independent experiments.
The β-actin was used as setter. […] (C) Representative graphs and percentages of the CD11c+ I-Ab^hi, CD11c+I-Ab^int and CD11c+I-Ab^low cells of DCs isolated from LNs draining skin antigens of WT animals or TLR2 KO. […] After this period, the treated grafts were sutured in the BALB/c animals' back and the acceptance was daily monitored. […]

STAT3 = test: p-STAT3 intracellular marking in BMDCs; type: cell-based, mice (Mus musculus); details: 30 μg/ml, 45 minutes after the stimulus
Experimental: As positive control, the cells were stimulated with […] of phorbol myristate acetate (PMA) for 30 minutes. After the stimuli in the periods mentioned, the cells were fixed with Cytofix Buffer (BD Biosciences) for 10 minutes at 37° C. and permeated with Phosflow Perm Buffer III (BD Biosciences) for 30 minutes on ice. After such procedures, the cells were marked for p-ERK1/2 and p-STAT3.
For analyzing the recipients T cells, the cells were marked for CD4 (GK1.5), CD8a (53-6.7), Foxp3 (MF23), Ki67 (B56) achieved from BD Biosciences. […] The levels of phosphorylated ERK and STAT3 were determined using antibodies for p-ERK1/2 and p-STAT3 (BD Biosciences) in BMDCs previously fixed and permeablized. The cells were subsequently analyzed in the flow cytometer FACSCanto II (BD Biosciences) with the BD FACSDiva (BD Biosciences) program. The data achieved were analyzed with the Flowjo program (version 7.6.5, Tree Star).
The p-ERK expression was measured by flow cytometry. […] The p-STAT3 expression was measured by flow cytometry. […] After that, the IL-10 mRNA levels were measured by Real-time PCR and the concentration of this cytokine by flow cytometry, using the kit CBA Mouse Inflammation. […] After that, the MARCH-I mRNA levels were analyzed by Real-time PCR. […]

ERK = test: p-ERK intracellular marking in BMDCs; type: cell-based, mice (Mus musculus)

Hsp70: recombinant Mycobacterium tuberculosis Hsp70 (DnaK) produced in Escherichia coli BL21, LPS removed
percentage of CD11c+ CD86^hi cells (FIG. 5) (CD86): revert partially | MHC II levels in DCs CD103+ migrating from the graft to the recipient DLN (FIG. 9 B) ([1]; 24 h or 96 h after transplantation): significant reduction of MHC II levels | CD80 and CD86 levels of donor DCs (FIG. 6 C) ([1]; 24 h or 96 h after transplantation, vs OVA): reduced levels of CD80 and CD86 | CCR7 expression in migratory donor DCs ([1]; 24 hours after transplantation, vs OVA): upper levels of CCR7 | CCR7 expression in migratory donor DCs ([1]; four days after transplantation, vs OVA): did not differ | MHC II expression in donors DCs in recipient DLN (FIG. 6 A, B) ([1]; graft treated by immersion, vs OVA): MHC II expression reduction | donor cells (I-A^b+ or GFP+) in the recipient DLN ([1]; one and four days after transplantation, vs OVA): not noted any difference | MHC II expression in DCs isolated from skin draining lymph nodes (FIG. 3) (MHC II; 24 h, vs OVA): increase in the number of DCs expressing intermediate or low levels of MHC II | MHC II expression inhibition in DCs TLR2 KO (FIG. 12 C) (MHC II; DCs isolated from LNs of WT or TLR2 KO): dependent on TLR2 | reduction of MHC II expression in IL-10 KO DCs (FIG. 11 B) (MHC II; DCs of knockout animals for IL-10): not possible to note this phenomenon | MHC II expression in DCs CD103+ isolated from the lymph nodes (FIG. 9 C) (MHC II; in vitro, 30 μg/ml, 24 h): reduce in vitro the MHC II expression | STAT3 phosphorylation in BMDCs (FIG. 13 C) (STAT3): induced the phosphorylation STAT3 | p-ERK levels in BMDCs (FIG. 13 A) (ERK; 30 μg/ml, after 15 minutes of stimulus, WT): increase in the phosphor ERK levels | p-ERK levels in TLR2 KO BMDCs (FIG. 13 B) (ERK; TLR2 KO BMDCs, 15 minutes): increase was not noted
